{
  "source": "patent EP0197800A2",
  "about": "“5-Thiaprostaglandins E1 and process for producing same” (TEIJIN LIMITED, priority 1985, dated 1986)",
  "key": {"[1]": {"system": "ethanol ulcer", "assay": "inhibitory activity on ethanol ulcer", "assay_type": "in vivo, SD-strain rats", "conditions": "rat ethanol ulcer, oral administration of 4 ug/kg", "description": "An ethanol ulcer test was carried out by the following procedure. SD-strain rats (body weight 200 to 220 g; 7 week old) were fasted for 24 hours, and a solution of the test compound in physiological saline buffered with phosphate buffer at pH 7.5 was orally administered. Thirty minutes after the administration, 75% ethanol was orally administered in a dose of 1 ml/kg. One hour later, the abdomen was incised to isolate the stomach. […] The total of these lengths was […] ulcer index. From this measurement, the inhibition of ulcer formatin by the test compound was calculated, to determine the IC50 value."}, "[2]": {"system": "platelet aggregation", "assay": "extra vivo inhibitory activity of platelet aggregation after oral administration", "assay_type": "in vivo, Hartley-strain guinea pigs", "conditions": "guinea pigs, oral 0.3-3 mg/kg, blood drawn 1 hour after administration, N.E.: no-effect", "description": "The extra vivo platelet aggregation inhibitory activity of the 5-thiaprostaglandin E1 derivatives of the invention were measured by using guinea pigs. A test drug prepared as a 10% ethanol solution of the compound of the invention in ethanol diluted with 10% ethanol-0.5% Tween 80 in saline were orally administered in a dose of 0.3-3 mg/kg, and as a control 10% ethanol-0.5% Tween 80 in saline was orally administered in a dose of 1 ml/kg to Hartley-strain guinea pigs having a body weight of 350 to 450 g which had been fasted for 17 hours. 1 hour after the administration of the compound, blood was drawn off by carbiac puncture using trisodium citrate so that the ratio of the blood to 3.8% trisodium citrate was 9:1. The blood was centrifuged at a speed of 700 rpm for 10 minutes. The upper layer was separated as platelet-rich plasma (PRP). The lower layer was further centrifuged at a speed of 2800 rpm for 10 minutes. The upper layer was separated as platelet poor plasma (PPP). A 250 microliter amount of the - resulting PRP was taken into an aggregometer cuvette and incubated at 37°C for 2 minutes. […] The aggregation curve was recorded for 5 minutes. The maximum degree of aggregation of platelets within this time period was read, and the rate of inhibition of platelet aggregation was calculated from the following equation. […]"}, "[3]": {"system": "indomethacin ulcer", "assay": "inhibitory activity on indomethacin ulcer", "assay_type": "in vivo, Wister male rats", "conditions": "rat indomethacin ulcer, oral administration of 40 µg/kg", "description": "The inhibiting effect on ulcer formation induced by indomethacin was examined by using Wister male rats (7 weeks old, body weight 220 g) which were fasted for 24 hours, except for water, and then subjected to experiment.\nThe sample compound to be tested was dissolved in a phosphoric acid buffer (pH 7.4) containing 0.9% NaCl and the solution was orally administered to the rats. 30 minutes after the administration, indomethacin was orally administered to the rats at a dose of 20 mg/kg. 5 hours after the administratin of the indomethacin, the rats were killed and the ulcer formation in the stomach was examined by determining the length of the ulcer formation portion under a stereomicroscope. From this measurement, the inhibition of ulcer formation by the sampel compound was calculated to determine the IC50 values."}, "[4]": {"system": "blood pressure", "assay": "activity on blood pressure, intravenous injection under anesthesia", "assay_type": "in vivo, male wister rats", "conditions": "Rattus norvegicus, i.v., dosage which caused a 20% lowering of the mean blood pressure, anesthetized rats", "description": "The actions of the 5-thiaprostaglandin of the invention on the blood pressure was examined by intravenous injection under anesthesia.\nUrehtane (500 mg/kg) and a-chloralose (100 mg/kg) were intraperitoneally administered to male wister rats weighing about 250 g. The rats were anesthetized and fixed in place.\nThe test compound was dissolved in a small amount of ethanol and diluted with physiological saline to adjust the final ethanol concentration to not more than 5%. The solution was intravenously injected into the rats through a catheter inserted into the femoral vein.\nThe blood pressure of the rats was measured by a pressure transducer through a catheter inserted into the carotid artery of the rats.\nThe action of the test compound on the blood pressure was expressed as the dosage (ED20 , ug/kg) of the test compound which caused a 20% lowering of the mean blood pressure before administration of the compound."}, "[5]": {"system": "platelet aggregation", "assay": "in vitro inhibitory activity of platelet aggregation (ADP-induced, platelet-rich plasma)", "assay_type": "cell-based, Japanese domestic white male rabbits", "conditions": "Oryctolagus cuniculus; rabbit PRP, 10 µM ADP; minimum concentration which inhibited more than 50% of platelet aggregation; read-out: Inhibition of Platelet in vitro IC50", "description": "The in vitro platelet aggregation imhibiting activity of the compound of the invention was examined by using rabbits. Blood was withdrawn from the ear vein of Japanese domestic white male rabbits weighing 2.5 to 3.5 kg. A mixture of a 3.8% trisodium citrate solution and the blood in a ratio of 1:9 was centrifuged at a speed of 1000 rpm for 10 minutes. The upper layer was separated as platelet-rich plasma (PRP). The lower layer was further centrifuged at a speed of 2800 rpm for 10 minutes. The upper layer was separated as platelet- poor plasma (PPP). The number of plate lets was adjusted to 6 x 105/µℓ. to 7 x 105/µℓ. by diluting the PRP with PPP. 25 microliters of the test compound prepared as shown below was added with an amount of 25 to 250 microliters of PRP after the adjustment, and the mixture was pre-incubated at 37°C for 2 minutes, and then 10 µM (final) of ADP was added. Changes in transmission were recorded by using an aggregometer.\nThe drug was dissolved in ethanol to a concentration of 10 mg/ml, and seccussively diluted with phosphate buffer (pH 7.4) prior to use.\nThe rate of inhibition of platelet aggregation was determined from the following equation. [formula] • T0: the transmittance of the system containing the phosphate buffer, • T : the transmittance of the system to which the test drug was added. […]"}},
  "data": [
    {"smiles": "CCCC[C@](C)(O)C/C=C/[C@H]1[C@H](O)CC(=O)[C@@H]1CCSCCCC(=O)OC", "note": "[Compound of example 6, (16S)-15-deoxy-16-hydroxy-16-methyl-5-thiaprostaglandin E1 methyl ester]", "values": [
      {"measurement": "prevention rate of ulcer generation", "setting": "[1]", "result": "about 50%"},
      {"measurement": "Inhibition of Platelet extra vivo ADP", "setting": "[2]; ADP-induced aggregation", "result": "N.E."},
      {"measurement": "Inhibition of Platelet extra vivo collagen", "setting": "[2]; collagen-induced aggregation", "result": "N.E."},
      {"measurement": "preventive rate of ulcer generation", "setting": "[3]", "result": "about 50%"},
      {"measurement": "ED20", "setting": "[4]", "result": 2.1, "unit": "µg/kg"},
      {"measurement": "IC50", "setting": "[5]", "result": 60, "unit": "µg/mL"}
    ]}
  ]
}
